Experimental findings from patent US6177475A, “Methods of using integrin modulators for treatment of inflammation” (priority 1997, dated 2001) are described below.

One test has as its system H9 cells. The experiment in a line: Disruption of cell clusters formed by H9 cells in culture. In kind it is cell-based. The following applies: Homo sapiens, 16 to 24 h. As to the method:
T-lymphocytic H9 and Jurkat cells were maintained as suspension cultures in RPMI-1640 medium supplemented with 10% (v/v) heat-inactivated fetal calf serum, 50 micrograms/ml gentamycin and 2 mM L-glutamine. To assess the effects of Ajoene on adhesive interactions of the cells, H9 cells or Jurkat cells were seeded in 96-well flat-bottomed plates (3×10^5cells per well) and cultured in the presence of log 10 dilutions of Ajoene (experiment) or its vehicle (control) for 16 to 24 h.
The requirement of integrins for the formation of cell-to-cell contacts in each of these systems has long been established. It is known that in platelets the relevant integrin is GP IIb/IIIa (β3). Neutrophil aggregation is underlain by interactions of β2 integrins (e.g., LFA-1 and/or Mac-1) with their surface counterstructures, while cohesion of T-cells is supported by both β2 integrins and fibronectin-binding β1 integrins (e.g., VLA-4 and VLA-5).

Another test has as its system VLA-4 (VCAM-1). The test is described as follows: Adhesion of TPA-activated Jurkat cells to SVT2/VCAM-1 monolayers. In kind it is cell-based. Particulars: Homo sapiens, 0.75 h, SVT2/VCAM-1, TPA 125 ng/ml, 45 min. Here is the method:
SVT2 cells transfected with human ICAM-1 or VCAM-1 (SVT2/ICAM-1 and […], respectively) were plated into 96-well plates and cultured overnight. […] The labeled Jurkat cells were washed three times and resuspended at a density of 4×10^6 cells/ml in complete RPMI medium. Serial dilutions of Ajoene were prepared in complete RPMI medium. Aliquots of the cells (0.5 ml) were then mixed with an equal volume of Ajoene dilutions (1:1 v/v), and the mixtures incubated at 37° C. for 30 min. Thereafter, Ajoene-incubated cells were added in duplicate to SVT2/ICAM-1 and SVT2/VCAM-1 monolayers, and TPA was introduced into each well to the final concentration of 125 ng/ml. The plates were incubated at 37° C. for 45 min, after which the non-adherent cells were removed by washing with warm complete RPMI medium. The bound labeled cells were lysed by adding 1% Triton X-100 solution in 0.1 N HCl. The lysates were assayed in a gamma counter to determine the percentage of bound cells. […] Thus, coculturing of Jurkat cells with SVT2/ICAM-1 and SVT2/VCAM-1 cells makes it possible to assess, respectively, the function of IFA-1 and VLA-4 under identical conditions. In the absence of TPA, 10 and 20% of the added Jurkat cells adhered to SVT2/ICAM-1 and SVT2/VCAM-1 cells, respectively. […]

A further test has as its system 51Cr-labeled monocytes. The experiment in a line: Monocyte recruitment to inflamed skin. In kind it is in vivo, rat. Particulars: 50 mg/kg i.v.; for Accumulation of 51Cr-labeled Monocytes (mean ± SEM): 2 h. The text has this: Chemotactic factors (e.g., C5adesArg) and cytokines, such as tumor necrosis factor α (TNF) or interferon gamma (IFN), induce rapid cutaneous inflammatory reactions, when injected intradermally. These inflammatory reactions are characterized by integrin-mediated migration of ^51 Cr-labeled monocytes and ^111 In-labeled neutrophils. The mechanisms of leukocyte recruitment to the inflammatory loci differ, however, in that chemotactic factors act primarily on leukocytes (by upregulating integrins), whereas TNF and IFN activate endothelial cells (which results, inter alia, in rapid expression of integrin ligands, such as ICAM-1 and VCAM-1).
Agents used for the induction of the inflammation included rat IFN, recombinant mouse TNF (Genentech, South San Francisco, Calif.), and Zymozan-activated serum (ZAS). ZAS, a source of C5adesArg, was generated by activating complement in normal rat serum with 5 mg/ml of Zymozan A (Sigma Chemical Company, St. Louis, Mo.) at 37° C. for 60 min, after which the zymozan was removed.
Rat monocytes and neutrophils were isolated and labeled as described in Example 6, supra. Male Lewis rats were administered intravenously with 50 mg/kg Ajoene (treatment group) or its vehicle (control), followed within 2-3 min by infusion of the labeled cells. Immediately afterwards, the skin on the back of all animals was shaved and the inflammatory stimuli and the diluent control were injected intradermally at several sites of the skin of each animal. Two hours later, 1 ml of blood was taken from each rat, and the animals were sacrificed. The dorsal skin, including the area of dermal inflammatory reactions, was removed and frozen, and the injected skin sites were punched out with a 12-mm punch and counted in a gamma spectrometer (model 1280, LXB Instruments).

In test [1] the test system is MOLT-4 cells / syncytiotrophoblasts. The test is described as follows: Adhesion of uninfected MOLT-4 clone 8 cells to syncytiotrophoblasts. In kind it is cell-based, human. The text has this: Human fetal placental epithelial cells, known as syncytiotrophoblasts, were organized in a monolayer and exposed to HIV-infected lymphocytic cells and, as a negative control, to uninfected cells of the same type. This experimental system, closely simulating the actual conditions under which syncytiotrophoblasts would be exposed to HIV-infected cells in vivo, was used to assess integrin-modulating effects of Ajoene.
MOLT-4 clone 8 cells were labeled with calcein-AM, pretreated with different concentrations of Ajoene (0-200 micromoles per liter) and incubated with cultured term syncytiotrophoblast cells at 37° C. for one hour in the presence of Ajoene. Adhesion was measured directly as fluorescence units after background correction. Controls included measuring adhesion in the presence of the appropriate carrier solvent.

Another test concerns cell-free HIV. The test is described as follows: Cell-free HIV infection of syncytiotrophoblasts. In kind it is cell-based, HIV-1. Particulars: 200 micromoles per liter and lower concentrations tested. As to the method:
In order to assess the ability of Ajoene to inhibit lymphocyte-mediated HIV infection of syncytiotrophoblasts, HIV-1LBi -infected MOLT-4 cells were added to adherent cultures of uninfected syncytiotrophoblasts in the presence and absence of Ajoene. Various additional control conditions were also established. First, some wells received filtered (0.45 micrometer) supernatant of cell-free HIV from infected cell cultures. Yet other negative controls included syncytiotrophoblasts cultured alone and syncytiotrophoblasts cultured with uninfected MOLT-4 cells. After 24 hours, the cocultures were washed to removed unbound lymphocytes, fixed, permeabilized, stained for viral core antigens (p24 and p55), and viewed under a fluorescence microscope.

In general, IC50 refers to the point on the concentration scale where inhibition reaches its midpoint. A high value points to weaker potency in that assay. For the compound `C=CCSSC=CC[S+]([O-])CC=C` (centres unmarked) [Ajoene, 4,5,9-trithiadodeca-1,6,11-triene-9-oxide], the IC50 is about 0.05 µM with H9 cells; about 20 µM in the test with VLA-4 (VCAM-1); 60 µM in test [1] (Homo sapiens, MOLT-4, 1 hour, 37° C., cells not infected with HIV). In addition, the “Accumulation of 51Cr-labeled Monocytes (mean ± SEM)” value in the test with 51Cr-labeled monocytes (10 ng TNF, P < 0.002) is reported as 1,274 cpm per inflammatory locus; with 51Cr-labeled monocytes (25% ZAS, P < 0.020), 944 cpm per inflammatory locus; in the test on 51Cr-labeled monocytes (50% ZAS, P < 0.002), 1,268 cpm per inflammatory locus; with 51Cr-labeled monocytes (300 U IFN, P < 0.001), 468 cpm per inflammatory locus; in the test on 51Cr-labeled monocytes (diluent control stimulus, N.S.), 15 cpm per inflammatory locus. Further, the “inhibition of monocyte migration to loci of acute cutaneous inflammation” value in the test on 51Cr-labeled monocytes is 50-75%. Besides, the “inhibition of adhesion of MOLT-4 cells to syncytiotrophoblasts” value in test [1] (200 micromoles per liter) turned out to be 100%. Moreover, the “inhibition of cell-free HIV infection of syncytiotrophoblasts” value in the test on cell-free HIV is on record as “totally inhibited”.
